The text below walks through data of paper PMC8372822, “A Concise Synthetic Strategy Towards the Novel Calcium-dependent Lipopeptide Antibiotic, Malacidin A and Analogues” (Frontiers in Chemistry, 2021).

Read-outs that look alike come from different tables or passages of the source. Positions of bridges follow the written chain, without caps; N, C: chain ends. Non-standard residues stand in square brackets, D forms with d. Residues, ends and D or L forms follow the SMILES beside them. *: point of attachment. Benzoyl(4-Ph) = O=C(c1ccc(-c2ccccc2)cc1)*; Decanoyl = CCCCCCCCCC(=O)*; Dap = NC[C@H](N)C(=O)O

Series [1] can be described thus: Ca2+ binding capability by 1H NMR in the presence of CaCl2. To be noted: 1a 5.6 mM in D2O, CaCl2 at 1.5 mM and 15 mM, 500 MHz, 298 K. The procedure: Despite these differences, it was observed that the lipid sp^2 proton signals closely matched that of the natural product and no peaks arising from cis-trans isomerization were observed, indicating the tolerance of acid-sensitive lipid 25 to the optimized TFA side chain deprotection conditions and HPLC purification protocols.
[picture] Figure S16. Overlay of ^1H NMR spectra of synthetic 1a (5.6 mM) recorded at 500 MHz, 298 K in D2O spiked with Et3N (1.88 mM) and CaCl2 of varying concentrations: 0 mM CaCl2 (bottom), 1.5 mM CaCl2 (middle), 15 mM CaCl2 (top).

Series [2] has as its system Staphylococcus aureus (ATCC 29213). The series is classed as cell-based. The procedure: MIC assays were performed in accordance with the CLSI recommended protocol^17 with minor adjustments. Briefly, Staphylococcus aureus (ATCC 29213) was grown at 37 °C with shaking (200 rpm) in Mueller Hinton (MH) broth supplemented with either 1.5 mM (near the concentration commonly employed for daptomycin testing [1.25 mM]) or 15 mM CaCl2 (in accordance with the reported testing of malacidin by Hover et al.^1) from an autoclaved stock solution of CaCl2. The respective Ca^2+ adjusted media was used for all further compound and culture dilutions. A two-fold dilution series of the test compounds was prepared in triplicate in polypropylene 96-well plates. Cultures of bacteria grown for 8 h were diluted accordingly in fresh media before adding 50 µL of inoculum to each well of the MIC plate, to achieve a final volume of 100 µL with a uniform CFU/ml of ~5 x10^5 in each well. A growth control (untreated) and sterility control (non-inoculated) well were included for each test compound replicate. Plates were incubated at 37 °C with shaking for 18 h before determining the MIC by visual inspection. MIC values were determined as the lowest concentration at which no growth was observed consistently across all three biological replicates of the assay and within triplicates of each test compound.
Table S2. MIC values of diastereomer 1a at different CaCl2 concentrations.

For series [3], the system named is Staphylococcus aureus ATCC 6538. In words: microbe, parasite or virus in culture. The series is classed as cell-based. As to conditions: for MIC: S. aureus ATCC 6538, CAMHB, in presence of 50 mg L^-1 of CaCl2, 37 °C, 18 to 24 h, biological triplicate, maximum concentration 128 µg mL^-1. The procedure:
Antimicrobial susceptibility testing was performed in biological triplicate by determining the minimum inhibitory concentrations (MIC) of the six malacidin analogues and the control antibiotics, penicillin G and daptomycin. Malacidin analogues 31, 36, 39, and 40 were prepared as 10 mg mL^-1 stock solutions in filter sterilised MilliQ water. Compounds 37, and 38 were prepared as 5 mg mL^-1 stock solutions in filter sterilised MilliQ water. Malacidin analogues were tested at a maximum concentration of 128 µg mL^-1. Bacterial inoculums of Staphylococcus aureus ATCC 6538 were prepared by diluting an overnight culture to a final optical density 600 nm (OD600) of 0.003 in cation adjusted Mueller Hinton broth (CAMH) to yield 5 × 10^5 CFU mL^-1 (final) in all assays. MIC assays were performed in 96-well microtiter plates in a total volume of 100 µL, and compounds were serially diluted across the plate in 2-fold dilutions. The MIC was reported as the lowest concentration of the test compound for which no growth occurred after incubation at 37 °C for 18 to 24 h. For all MIC testing CAMHB was supplemented with calcium (50 mg L^-1 final) as per the CLSI guidelines for daptomycin^17
Table S3. MIC values of simplified analogues 31, 36-40 in presence of 50 mg L^-1 of CaCl2.^aTesting was additionally performed in the absence of CaCl2 and no activity for any of the malacidin analogues was observed against S. aureus.

Series [4] relates to methicillin-resistant Staphylococcus aureus (MRSA), MRSA USA300. To be noted: ref Hover et al., 2018, cited from earlier work. An excerpt:
In 2018, Brady et al. reported the isolation of malacidin A (1) as part of an extensive metagenomic mining study of bacterial DNA obtained from soil samples in search of novel bioactive natural products ([Owen et al., 2013]; [Hover et al., 2018]). […] Malacidin ... || FIGURE 1 Structure of malacidin A (1); non-canonical amino acids and the lipid tail are highlighted in purple; the undefined stereochemistry of β-carbon centers is indicated with an asterisk; the calcium-binding region residues are specified in red; the macrolactam bond is highlighted with blue shading. The stereochemistry and MIC values of the isolated malacidin A (1) ([Hover et al., 2018]) and synthesized diastereomers [this work 1a, the Li group 1b–1e ([Sun et al., 2020])] are shown above; X in 1 represents undefined stereochemistry. TEXT PRINTED IN THE PICTURE: Malacidin A (1): MIC (μg mL^ ...

For series [5] the following is noted: ref Hover et al., 2018; cited from earlier work. The source says: Evaluation of the antibacterial activity of the synthesized analogues 1a, 31 and 36–40 was then undertaken.
The test system of the next series is S. aureus. As to conditions: after repeated exposure to S. aureus; ref Hover et al., 2018; cited from earlier work. The source says:
(§1) In 2018, Brady et al. reported the isolation of malacidin A (1) as part of an extensive metagenomic mining study of bacterial DNA obtained from soil samples in search of novel bioactive natural products ([Owen et al., 2013]; [Hover et al., 2018]). […] Malacidin ...

The subject of series [6] is vancomycin-resistant Enterococcus faecium (VRE). To be noted: ref Hover et al., 2018; cited from earlier work.
Source text: as §1

For series [7] the following is noted: cited from earlier work.
Source text: as §1

For `CC(C)CC/C=C\C=C\C(=O)N[C@H](C(=O)N[C@@H]1C(=O)N[C@H](C(C)C)C(=O)N[C@@H](CCCCN)C(=O)N[C@@H]([C@H](O)C(=O)O)C(=O)N[C@@H](CC(=O)O)C(=O)NCC(=O)N[C@H]([C@@H](C)C(=O)O)C(=O)N[C@@H](C(C)C)C(=O)N2C[C@H](C)C[C@H]2C(=O)N[C@H]1C)[C@H](C)C(=O)O` [1a], the “interaction with Ca^2+ ions (signal shifts or line broadening in 1H NMR)” value in series [1] is on record as “fails to interact with Ca^2+ ions”. The “activity toward S. aureus” value in series [2] (15 mM CaCl2 (Supplementary Table S2)) and in series [2] (media supplemented with 1.25–1.5 mM CaCl2 (Supplementary Table S2)) was “no activity” each time. The MIC in series [2] (S.aureus strain: ATCC 29213, Figure 1, this work) is more than 64 µg/mL.
With `CC1(C)S[C@@H]2[C@H](NC(=O)Cc3ccccc3)C(=O)N2[C@H]1C(=O)O` [Penicillin G, penicillin G], in series [3] (Staphylococcus aureus, ATCC6538, read-out: MIC), the MIC is 0.0312 µg/mL.
Consider `CC(C)[C@@H]1NC(=O)[C@@H](CC(=O)O)NC(=O)CNC(=O)[C@H](CC(=O)O)NC(=O)[C@H](CC(=O)O)NC(=O)[C@H](CCCCN)NC(=O)[C@@H](C(C)C)NC(=O)[C@@H](NC(=O)[C@H](CC(=O)O)NC(=O)c2ccc(-c3ccccc3)cc2)CNC(=O)[C@@H]2CCCN2C1=O` [compound 40] ({Benzoyl(4-Ph)}-D[Dap][dV]KDDG[dD]VP; lactam 2-C), for which the MIC in series [3] is recorded as >128 >128 µg/mL.
As to malacidin A, the MIC was 0.2 to 0.8 µg/mL in series [4] (MRSA); 0.2 to 0.8 µg/mL in series [4] (S.aureus strain: MRSA USA300, Figure 1); 0.8 to 2.0 µg/mL in series [6]. The “CaCl2 concentration of maximum activity” value in series [5] is 15 mM. In addition, the induction of resistance entry in the series with S. aureus is recorded as “did not induce resistance”. Further, in series [7], the cytotoxicity result is given as “non-cytotoxic”. For the same compound, the molecular target bound entry in series [7] (preliminary mechanistic studies, ref Hover et al., 2018) is on record as “binding to lipid II”.
Consider `CCCCCCCCCC(=O)N[C@@H](CC(=O)O)C(=O)N[C@H]1CNC(=O)[C@@H]2CCCN2C(=O)[C@H](C(C)C)NC(=O)[C@@H](CC(=O)O)NC(=O)CNC(=O)[C@H](CC(=O)O)NC(=O)[C@H](CC(=O)O)NC(=O)[C@H](CCCCN)NC(=O)[C@@H](C(C)C)NC1=O` [compound 31] (Decanoyl-D[Dap][dV]KDDG[dD]VP; lactam 2-C), for which the “activity toward S. aureus” value in series [3] (media supplemented with 1.25–1.5 mM CaCl2 (Supplementary Table S3)) is “no activity”.
